“And” between values parts separate entries of the source, which are not always exact repeats. Identical values can stand only once.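 1) Cells in 96-well plates. 2) Compound, 48 h, 5 concentrations. 3) Linear interpolation between surrounding doses. 4) Unreached endpoint = highest concentration. GI50 is the concentration that inhibits growth by half. Definition used: TGI = concentration required for complete inhibition of growth.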 Where only a bound is given, the exact number is not on record here.

Test systems include SW-620 colon; DU-145 prostate; A549 NSCLC; HCT-116 colon; NCI-H226 lung; EKVX NSCLC; SF-295 CNS; SK-MEL-5 melanoma; NCI-H522 lung; BT-549 breast.
Holding throughout (test): inhibition of tumour cell growth, NCI panel, 48 h

With `O=C1/C(=C\c2ccc([N+](=O)[O-])cc2)CS(=O)(=O)C/C1=C/c1ccc([N+](=O)[O-])cc1`, the GI50 in the test with SW-620 colon is 0.0889 µM; in the test on DU-145 prostate it was 0.87 µM; in the test with A549 NSCLC, 0.35 µM; with HCT-116 colon, 0.0821 µM; with NCI-H226 lung, 0.163 µM; in the test on EKVX NSCLC, 0.348 µM. For the same compound, the GI50 in the test on SF-295 CNS is 0.563 µM; with SK-MEL-5 melanoma, 0.4 µM; with NCI-H522 lung, 0.168 µM. Besides, the TGI with SW-620 colon was 0.481 µM and 2.74 µM; with DU-145 prostate, 12.4 µM; in the test on A549 NSCLC, 10.8 µM; with HCT-116 colon, 0.227 µM and 1.28 µM; with EKVX NSCLC it was 4.95 µM; in the test on SF-295 CNS, 6.42 µM. Besides, the TGI in the test with SK-MEL-5 melanoma was 3.03 µM; in the test on NCI-H522 lung, 0.398 µM and 1.29 µM; with BT-549 breast it was 0.845 µM and 1.12 µM.
On to `O=C(O)c1ccccc1-c1ccccc1C(=O)Nc1ccc2c(c1)Cc1ccccc1-2`, for which the TGI was over 100 µM in the test on SW-620 colon; over 100 µM in the test on DU-145 prostate; 97.5 µM in the test with A549 NSCLC; 35.9 µM with HCT-116 colon; over 100 µM with NCI-H226 lung; 54.8 µM with EKVX NSCLC. Besides, the TGI with SF-295 CNS was over 100 µM; in the test with SK-MEL-5 melanoma, 31.6 µM; in the test with NCI-H522 lung, 55.2 µM; in the test on BT-549 breast, 69.4 µM.
As for `O=C1C=CC(=O)c2c1cc1ccccc1c2O`, the TGI in the test with SW-620 colon amounted to 3.59 µM; in the test with DU-145 prostate it was 28.3 µM; in the test with A549 NSCLC, 35.3 µM; in the test with HCT-116 colon it was 4.05 µM; in the test on NCI-H226 lung, 37.6 µM; with EKVX NSCLC it was 22.8 µM. The TGI was 31.6 µM with SF-295 CNS, 24.5 µM in the test on SK-MEL-5 melanoma, 3.98 µM in the test on NCI-H522 lung and 21.6 µM in the test with BT-549 breast.
With `O=c1c(-c2ccc3c(c2)OCO3)coc2c(CO)c(O)ccc12`, the GI50 is 4.06 µM with SW-620 colon; 2.41 µM with DU-145 prostate; 6.8 µM with A549 NSCLC; 2 µM in the test on HCT-116 colon; 1.81 µM in the test with NCI-H226 lung; 2.79 µM with EKVX NSCLC. Also, the GI50 is 2.2 µM in the test on SF-295 CNS, 1.91 µM with SK-MEL-5 melanoma, 4.55 µM with NCI-H522 lung and 1.47 µM in the test on BT-549 breast. For the same compound, the TGI in the test with SW-620 colon was determined as 18.5 µM; with DU-145 prostate, 7.06 µM; in the test on A549 NSCLC, 30.9 µM; in the test with HCT-116 colon, 4.94 µM; with NCI-H226 lung, 4.46 µM; in the test with EKVX NSCLC it was 8.81 µM. Also, the TGI with SF-295 CNS came out at 6.18 µM; in the test with SK-MEL-5 melanoma it was 3.98 µM; in the test with NCI-H522 lung it was 20.8 µM; with BT-549 breast, 3.41 µM.
Turning to `S=C(Nc1ccc(Cl)cc1)SC1CCCCC1`, the TGI was over 100 µM with SW-620 colon; over 100 µM with DU-145 prostate; 56.4 µM in the test on A549 NSCLC; 70.8 µM with HCT-116 colon; over 100 µM in the test on NCI-H226 lung; 47 µM with EKVX NSCLC. Moreover, the TGI in the test on SF-295 CNS was 70.5 µM; in the test on SK-MEL-5 melanoma, 30.5 µM; with NCI-H522 lung, 44.6 µM; in the test with BT-549 breast, over 100 µM.
With `Cc1ccc(C2NC(=S)N3C(c4ccc(C)cc4)NC(=S)N23)cc1` (stereo not drawn), the GI50 was 3.78 µM with SW-620 colon; 3.62 µM in the test on DU-145 prostate; 5.82 µM with A549 NSCLC; 4 µM with HCT-116 colon; 6.85 µM with NCI-H226 lung; 7.93 µM in the test with EKVX NSCLC. Besides, the GI50 with SF-295 CNS is 2.92 µM; in the test on SK-MEL-5 melanoma, 3.88 µM; in the test with NCI-H522 lung, 1.94 µM; with BT-549 breast, 10.3 µM. Also, the TGI with SW-620 colon came to 17.9 µM; in the test on DU-145 prostate, 13.6 µM; with A549 NSCLC it was 20.1 µM; with HCT-116 colon it was 13.4 µM; with NCI-H226 lung, 29 µM; in the test with EKVX NSCLC, 25.3 µM. Moreover, the TGI was found to be 11.8 µM with SF-295 CNS, 14.3 µM with SK-MEL-5 melanoma, 8.54 µM in the test on NCI-H522 lung and 23.7 µM in the test with BT-549 breast.
For the compound `O=C1c2cccc3cccc(c23)C(=O)N1CC#Cc1ccc2c3c(cccc13)C(=O)N(CCN1CCNCC1)C2=O`, the GI50 in the test on SW-620 colon is 1.94 µM; with DU-145 prostate, 2.06 µM; in the test with A549 NSCLC, 3.19 µM; in the test with HCT-116 colon, 2.12 µM; with NCI-H226 lung it was 20.3 µM; with EKVX NSCLC, 15.7 µM. Further, the GI50 is 17.5 µM in the test with SF-295 CNS, 18.3 µM in the test on SK-MEL-5 melanoma, 2.03 µM in the test on NCI-H522 lung and 9.51 µM with BT-549 breast. Besides, the TGI in the test with SW-620 colon came to 3.79 µM; in the test on DU-145 prostate, 4.12 µM; in the test on A549 NSCLC, 12 µM; with HCT-116 colon, 4.79 µM; in the test on NCI-H226 lung it was 52.3 µM; with EKVX NSCLC it was 39.7 µM. In addition, the TGI came to 33.8 µM with SF-295 CNS, 36.4 µM in the test on SK-MEL-5 melanoma, 5.04 µM in the test with NCI-H522 lung and 34.4 µM in the test on BT-549 breast.
`O=S(=O)(CC(O)C(Cl)(Cl)Cl)NNc1ccccc1` (stereo not drawn): the TGI with SW-620 colon, in the test with DU-145 prostate, with A549 NSCLC, with HCT-116 colon, with NCI-H226 lung and in the test on EKVX NSCLC was over 100 µM in each case. In addition, the TGI with SF-295 CNS, with SK-MEL-5 melanoma, with NCI-H522 lung and in the test on BT-549 breast was over 100 µM throughout.
As for `CCCCCCCCCCCCNC(=O)[C@H]1CSC(c2cc(Br)cs2)N1` (stereo partly drawn), the GI50 was 1.4 µM in the test with SW-620 colon; 1.11 µM in the test with DU-145 prostate; 6.99 µM in the test on A549 NSCLC; 0.909 µM in the test on HCT-116 colon; 0.895 µM in the test with NCI-H226 lung; 0.918 µM in the test on EKVX NSCLC. Further, the GI50 is 1.42 µM in the test with SF-295 CNS, 5.57 µM in the test on SK-MEL-5 melanoma, 1.37 µM in the test with NCI-H522 lung and 0.894 µM in the test on BT-549 breast. In addition, the TGI was found to be 4.19 µM with SW-620 colon; 2.5 µM with DU-145 prostate; 14.1 µM with A549 NSCLC; 1.74 µM in the test with HCT-116 colon; 1.76 µM in the test with NCI-H226 lung; 1.77 µM in the test on EKVX NSCLC. For the same compound, the TGI in the test on SF-295 CNS was determined as 5.01 µM; in the test on SK-MEL-5 melanoma, 11.8 µM; in the test on NCI-H522 lung, 4.31 µM; in the test on BT-549 breast, 1.78 µM.

The values above are taken from PubChem BioAssay (NCI).
